Experimental data taken from US20170150715A1, “METHODS OF ELIMINATING SPORES” (Lifeclean International AB, priority 2013, published 2017).
Marks after values point to notes of the source that are not given here.

Experiments:
[1] = system: spore suspension Ribotype 25; experiment: Elimination of spores on glass surfaces, different contact times (Example 7); format: cell-based, Clostridium difficile; settings: glass surface, contact time 10 min
Protocol: Example 7 outlines a test with different contact for chlorine dioxide solution according to the invention. A spore suspension was generated and counted in accordance with Example 4:
Ribotype 25; 9.6×10^8 spores/mL (9.6×10^7 spores on the glass surface) approximately 80% spores in the suspension.
(§1) The glass surfaces were prepared by transferring 0.1 ml of the spore solution to microscopy slides. After the suspension has dried, 0.2 ml of the test solutions were added to the slides for application times between 1 and 10 minutes. Subsequently, the glass surfaces were each placed in a 500 ml glass flask with 250 ml 0.85% NaCl solution and rotated at 200 rpm for 20 minutes.
The test solution comprising chlorine dioxide was prepared in accordance with Example 2B, comprising 1600 ppm chlorine dioxide together with 0.2% (v/v) cationic surfactant comprising equal amounts of octyl dimethylamine oxide and lauryl dimethylamine oxide). After rotation, the contents of the flasks were treated and cultured with procedures and agar plates in accordance with Example 4.

[2] = system: C difficile spores PCR Ribotype 023; experiment: Elimination of spores of Clostridium difficile on surfaces (Example 4; glass, brass, copper); format: cell-based; settings: 10 minutes exposure; for Culture 6 PY-broth undiluted / Culture 7 PY-broth 10^−2 / Culture 8 PY-broth 10^−4 / Culture 9 PY-broth 10^−6: cotton tip smear of surface; for total amount of CFUs in the flasks (within brackets): surviving spores displaced from the surface; for amount of CFU in the undiluted PY-broth (within brackets): surviving spores remaining attached to the surface
Description: C difficile spores PCR Ribotype 023 (ECDC/Cardiff nomenclature) were transferred from a frozen sample to plates with Fastidious Anaerobe Agar (FAAAP), cultured under anaerobe conditions for 2 days. The cultures were transferred to ambient conditions and colonies of C difficile were admitted to sporulate. The spores were harvested and dissolved in sterile water (reverse osmosis (RO)), subjected to alcohol shock (70%), washed, centrifugated and collected as a suspension of spores.
In the preparation 0.1 ml of the spore suspension was transferred to microscopy slides, sterile plates of brass or copper. When the spore suspensions have dried, 0.2 ml of the following solutions were added:
After 10 minutes exposure to the solutions, the Glasses and the plates were each transferred to a 500 ml Glass flask to dilute and interrupt disinfection. The flasks were rotated at 200 rpm for 20 minutes.
From each of the rotated flasks 0.1 ml was transferred to agar plates (Culture 1). The samples were diluted in two steps 1/10 in tubes. From each tube, 0.1 ml was transferred to agar plates (Cultures 2 and 3).
The solutions in the flasks were filtered and rinsed with 3×100 ml buffered peptone water (PENAL). The filtrations were performed in two steps. At first, 1 ml was filtered, then remaining volume of solution in the flasks (approx. 249 ml). The filters were cultured on agar plates (Cultures 4 and 5).
At two times, 40 ml samples were taken from the filtrates. These were centrifugated and the supernatant was discarded, the pellet re-suspended in 0.1 ml 0.85% NaCl solution. The entire volume was transferred to agar plates.
In order to assess if viable spore remain on the surfaces of Glasses and the, they were smeared with moist cotton tip (all smeared in accordance with a “double-S” shape). The tip was cultured in 2 ml pre-reduced PY-broth which was diluted 1/10 in several repeated steps and cultured on agar plates (0.2 ml/plate), (Cultures 6 to 9)
All culture plates were cultured under anaerobe conditions at 36° C. for 2 days.

[3] = system: spores of C Difficile, Ribotype 25; experiment: Elimination of spores of C Difficile on glass surfaces, types and combinations of surface active agents (Example 6); format: cell-based, Clostridium difficile
Protocol: Example 6 was designed in order to evaluate different types and combinations of surface active agents in combination with chlorine oxide for elimination of spores of C Difficile on surfaces. The following test solutions were used:
The solutions were prepared in accordance with Examples 2, 2A and 3. RD1 and RD2 signify the anionic surfactants of Example 3 branded DOWFAX 3B2 and DOWFAX 8390, respectively. RD3 and RD4 signify the cationic surfactants of Example 2A branded AO-8 Macat and AO-12 Macat.
A spore suspension was generated and counted in accordance with Example 4:
Ribotype 25; 8.0×10^9 spores/mL (8.0×10^8 spores on the glass surface) approximately 80% spores in the suspension.
as §1

[4] = system: spore suspension Ribotype 25; experiment: Elimination of spores on glass surfaces, different concentrations of surfactants (Example 8); format: cell-based, Clostridium difficile; settings: glass surface, application time 2 minutes
Protocol: Example 9 outlines a test with chlorine dioxide solutions of 800 and 1600 ppm having different concentration of surfactants made in accordance with Example 2A. A spore suspension was generated and counted in accordance with Example 4:
Ribotype 25; 8.0×10^8 spores/mL (8.0×10^7 spores on the glass surface) approximately 80% spores in the suspension.
The glass surfaces were prepared by transferring 0.1 ml of the spore solution to microscopy slides. After the suspension has dried, 0.2 ml of the test solutions were added to the slides for an application time of 2 minutes. Subsequently, the glass surfaces were each placed in a 500 ml glass flask with 250 ml 0.85% NaCl solution and rotated at 200 rpm for 20 minutes.
After rotation, the contents of the flasks were treated and cultured with procedures and agar plates in accordance with Example 4.

[5] = spores survived not detached from the surface
[6] = surviving spores detached from the surface
[7] = 8.0×10^8 spores on the glass surface

SMILES: CCO [70% Ethanol, Ethanol]
- Number cfu Filtration 249 mL [1]: overgrown
- Number cfu × 10 PY-broth Undiluted [1]: overgrown
- Number cfu × 10^3 PY-broth Diluted 10^−2 [1]: overgrown
- Number cfu × 10^5 PY-broth Diluted 10^−4 [1]: 67 cfu
- Number cfu × 10 × 250 0.1 mL From bottle [1]: overgrown
- Number cfu × 100 × 250 0.1 mL Diluted 10^−1 [1]: overgrown
- Number cfu × 250 Filtration 1 mL [1]: overgrown
- Number cfu × 1000 × 250 0.1 mL Diluted 10^−2 [1]: 103 cfu
- number of CFUs in the undiluted PY-broth (brackets) [1, 5]: (6.7 × 10^6) CFUs
- number of CFUs in the flask (brackets) [1, 6]: (2.6 × 10^7) CFUs
- Culture 1 0.1 mL From bottle ([2]; Brass): overgrown
- Culture 2 Dilution 10^−1 ([2]; Brass): 55 CFU
- Culture 3 Dilution 10^−2 ([2]; Brass): 5 CFU
- Culture 4 Filtration 1 mL ([2]; Brass): overgrown
- Culture 5 Filtration 249 mL ([2]; Brass): overgrown
- Culture 6 PY-broth undiluted ([2]; Brass): overgrown
- Culture 7 PY-broth 10^−2 ([2]; Brass): overgrown
- Culture 8 PY-broth 10^−4 ([2]; Brass): 74 CFU
- Culture 9 PY-broth 10^−6 ([2]; Brass): 0 CFU
- total amount of CFUs in the flasks (within brackets) ([2]; Brass): (1.4 × 10^6) CFU
- amount of CFU in the undiluted PY-broth (within brackets) ([2]; Brass): (7.4 × 10^6) CFU
- Culture 1 0.1 mL From bottle ([2]; Copper): 429 CFU
- Culture 2 Dilution 10^−1 ([2]; Copper): 40 CFU
- Culture 3 Dilution 10^−2 ([2]; Copper): 1 CFU
- Culture 4 Filtration 1 mL ([2]; Copper): overgrown
- Culture 5 Filtration 249 mL ([2]; Copper): overgrown
- Culture 6 PY-broth undiluted ([2]; Copper): overgrown
- Culture 7 PY-broth 10^−2 ([2]; Copper): overgrown
- Culture 8 PY-broth 10^−4 ([2]; Copper): 79 CFU
- Culture 9 PY-broth 10^−6 ([2]; Copper): 0 CFU
- total amount of CFUs in the flasks (within brackets) ([2]; Copper): (1.0 × 10^6) CFU
- amount of CFU in the undiluted PY-broth (within brackets) ([2]; Copper): (7.9 × 10^6) CFU
- Culture 1 0.1 mL From bottle ([2]; Glass): overgrown
- Culture 2 Dilution 10^−1 ([2]; Glass): 517 CFU
- Culture 3 Dilution 10^−2 ([2]; Glass): 46 CFU
- Culture 4 Filtration 1 mL ([2]; Glass): overgrown
- Culture 5 Filtration 249 mL ([2]; Glass): overgrown
- Culture 6 PY-broth undiluted ([2]; Glass): overgrown
- Culture 7 PY-broth 10^−2 ([2]; Glass): overgrown
- Culture 8 PY-broth 10^−4 ([2]; Glass): 39 CFU
- Culture 9 PY-broth 10^−6 ([2]; Glass): 1 CFU
- total amount of CFUs in the flasks (within brackets) ([2]; Glass): (1.2 × 10^7) CFU
- amount of CFU in the undiluted PY-broth (within brackets) ([2]; Glass): (3.9 × 10^6) CFU
- 0.1 mL Diluted 10^−1 [3, 7]: overgrown
- 0.1 mL Diluted 10^−2 [3, 7]: 240 CFUs
- 0.1 mL From bottle [3, 7]: overgrown
- Filtration 1 mL [3, 7]: overgrown
- PY-broth Diluted 10^−2 [3, 7]: overgrown
- PY-broth Diluted 10^−4 [3, 7]: 86 CFUs
- PY-broth Undiluted [3, 7]: overgrown
- number of CFUs in the undiluted PY-broth (brackets) [3, 5]: (8.6 × 10^6) CFUs
- number of CFUs in the flask (brackets) [3, 6]: (6.0 × 10^7) CFUs
- Number cfu × 100 × 250 0.1 mL Diluted 10^−2 ([4]; head lines shifted, by Table 4 layout: 0.1 mL Diluted 10^−1): overgrown
- Number cfu × 1000 × 250 PY-broth Undiluted ([4]; head lines shifted, by Table 4 layout: 0.1 mL Diluted 10^−2): 81 cfu
- Number cfu × 10 × 250 0.1 mL Diluted 10^−1 ([4]; head lines shifted, by Table 4 layout: 0.1 mL From bottle): overgrown
- Number cfu × 250 0.1 mL From bottle ([4]; head lines shifted, by Table 4 layout: Filtration 1 mL): overgrown
- Number cfu Filtration 1 mL ([4]; head lines shifted, by Table 4 layout: Filtration 249 mL): overgrown
- Number cfu × 10^3 PY-broth Diluted 10^−4 ([4]; head lines shifted, by Table 4 layout: PY-broth Diluted 10^−2): overgrown
- Number cfu × 10^5 Filtration 249 mL ([4]; head lines shifted, by Table 4 layout: PY-broth Diluted 10^−4): 28 cfu
- Number cfu × 10 PY-broth Diluted 10^−2 ([4]; head lines shifted, by Table 4 layout: PY-broth Undiluted): overgrown
- number of CFUs in the undiluted PY-broth (brackets) [4, 5]: (2.8 × 10^6) CFUs
- number of CFUs in the flask (brackets) [4, 6]: (2.0 × 10^7) CFUs
